Measurements as given in patent US20240263127A1, “CRYOPROTECTIVE COMPOSITIONS AND USES THEREOF” (DUPONT NUTRITION BIOSCIENCES APS, priority 2010, published 2024).
Like-named read-outs stand apart in the source and are kept apart here.

How the values were obtained:
[1] = tested on: Lactobacillus acidophilus; experiment: Viable cell count after freeze drying with cryoprotectant; type: cell-based; details: for Recovery of viable cell from frozen pellets to freeze dried pellets: Example 2
Protocol: (§1) The cell count of the freeze dried material has been evaluated through a typical bacteria enumeration method used for lactic acid bacteria. In this method, the freeze dried bacteria were suspended into a MRS solution with a stomacher and revitalized in that solution for 30 minutes. The suspension was then successively diluted in bottles of peptone buffer and finally cultured on a MRS nutritive media for 48 to 72 hours at 38° C. under anaerobic condition. During that period, the bacteria form colonies on the nutritive media. Those colonies were counted and results were expressed as Colony Forming Units (CFU) per gram. Various cryoprotectants (see table 1) were mixed in a suspension containing, Lactobacillus acidophilus at an approximate cell count of 1E11 CFU/gr. The mixture, called stabilized concentrate, was kept at 4-8° C. for 1.5 hrs and continuously agitated before being frozen by dispensing droplets of the stabilized concentrate into liquid nitrogen. The resulting frozen droplets are called frozen pellets. The frozen pellets were freeze dried in a Virtis® freeze drier at 100 mT and a cell count measurement was performed just after freeze drying by performing an accelerated stability test. Various ratio of Inositol over Trehalose have been tested. The cryoprotectants were mixed for 1 to 3 hrs at 10-30° C. to a suspension containing Lactobacillus acidophilus at an approximate cell count of 1E11 CFU/gr. The mixture was frozen and freeze dried, and a cell count was performed just after freeze drying by performing an accelerated stability test, as disclosed in Example 1.

[2] = tested on: Lactobacillus acidophilus; type: cell-based; details: for Viable cell counts after accelerated stability test: L. acidophilus; for Recovery of viable cell after accelerated stability test: Lactobacillus acidophilus, 14 days
Protocol: as §1, with “gram. Long term stability of freeze dried bacteria as a function of time is a critical characteristic for commercial application. The long term stability can be evaluated by accelerated stability test consisting of placing the freeze dried cells into a sealed laminated aluminum foil in a constant temperature chamber maintained at 38° C. for fourteen days. The cell count of the freeze dried material is measured before and after the exposure to elevated temperature. A recovery rate of cells is calculated by subtracting the cells measured after the accelerated stability test from the initial cells measurement and dividing the subtraction results by the initial count. The accelerated stability test recovery rate gives a relative estimate of the long term cell stability.” for “gram.”

[3] = L. acidophilus suspension approx. 1E11 CFU/gr, freeze dried at 100 mT, Example 1
[4] = freeze dried cells 38° C. for fourteen days, Example 1
[5] = L. acidophilus, Example 2, Trehalose/Inositol ratios
[6] = 38° C. for fourteen days, Example 2

SMILES | Viable cell counts after freeze drying [1, 3] [CFU/gr] | Viable cell counts after accelerated stability test [2, 4] [CFU/gr] | Recovery of viable cell after accelerated stability test [2] [%] | Recovery of viable cell from frozen pellets to freeze dried pellets ([1]; L. acidophilus) [%] | Viable cell counts after freeze drying [1, 5] [CFU/gr] | Recovery of viable cells after accelerated stability test [2] [%] | Viable cell counts after accelerated stability test [2, 6] [CFU/gr]
O[C@H]1[C@H](O)[C@@H](O)[C@H](O)[C@@H](O)[C@H]1O [Inositol alone, Inositol] | 3.2E+11 | 1.3E+11 | 41.0 | – | – | – | –
OC[C@H]1O[C@H](O[C@H]2O[C@H](CO)[C@@H](O)[C@H](O)[C@H]2O)[C@H](O)[C@@H](O)[C@@H]1O [Trehalose alone experiment 2, Trehalose] | 6.6E+11 | 2.4E+11 | 38.0 | – | – | – | –
OC[C@H]1O[C@H](O[C@H]2O[C@H](CO)[C@@H](O)[C@H](O)[C@H]2O)[C@H](O)[C@@H](O)[C@@H]1O [Trehalose alone experiment 1, Trehalose] | 7.4E+11 | 2.2E+11 | 29.0 | – | – | – | –
O[C@H]1[C@H](O)[C@@H](O)[C@H](O)[C@@H](O)[C@H]1O [Trehalose 0.0 / Inositol 9.1, Inositol] | – | – | – | 81.2 | 5.14E+11 | 72.37 | 3.72E+11
O[C@H]1[C@H](O)[C@@H](O)[C@H](O)[C@@H](O)[C@H]1O [Trehalose 0.0 / Inositol 20.0, Inositol] | – | – | – | 94.7 | 3.70E+11 | 65.41 | 2.42E+11
